Values joined by “and” are separate entries in the source; they are usually repeats but may differ in a detail not shown here. Equal entries are not always repeated.

The target in one experiment is T1, Peregrin (Homo sapiens) (UniProt P55201).
T1 sequence (whole entry): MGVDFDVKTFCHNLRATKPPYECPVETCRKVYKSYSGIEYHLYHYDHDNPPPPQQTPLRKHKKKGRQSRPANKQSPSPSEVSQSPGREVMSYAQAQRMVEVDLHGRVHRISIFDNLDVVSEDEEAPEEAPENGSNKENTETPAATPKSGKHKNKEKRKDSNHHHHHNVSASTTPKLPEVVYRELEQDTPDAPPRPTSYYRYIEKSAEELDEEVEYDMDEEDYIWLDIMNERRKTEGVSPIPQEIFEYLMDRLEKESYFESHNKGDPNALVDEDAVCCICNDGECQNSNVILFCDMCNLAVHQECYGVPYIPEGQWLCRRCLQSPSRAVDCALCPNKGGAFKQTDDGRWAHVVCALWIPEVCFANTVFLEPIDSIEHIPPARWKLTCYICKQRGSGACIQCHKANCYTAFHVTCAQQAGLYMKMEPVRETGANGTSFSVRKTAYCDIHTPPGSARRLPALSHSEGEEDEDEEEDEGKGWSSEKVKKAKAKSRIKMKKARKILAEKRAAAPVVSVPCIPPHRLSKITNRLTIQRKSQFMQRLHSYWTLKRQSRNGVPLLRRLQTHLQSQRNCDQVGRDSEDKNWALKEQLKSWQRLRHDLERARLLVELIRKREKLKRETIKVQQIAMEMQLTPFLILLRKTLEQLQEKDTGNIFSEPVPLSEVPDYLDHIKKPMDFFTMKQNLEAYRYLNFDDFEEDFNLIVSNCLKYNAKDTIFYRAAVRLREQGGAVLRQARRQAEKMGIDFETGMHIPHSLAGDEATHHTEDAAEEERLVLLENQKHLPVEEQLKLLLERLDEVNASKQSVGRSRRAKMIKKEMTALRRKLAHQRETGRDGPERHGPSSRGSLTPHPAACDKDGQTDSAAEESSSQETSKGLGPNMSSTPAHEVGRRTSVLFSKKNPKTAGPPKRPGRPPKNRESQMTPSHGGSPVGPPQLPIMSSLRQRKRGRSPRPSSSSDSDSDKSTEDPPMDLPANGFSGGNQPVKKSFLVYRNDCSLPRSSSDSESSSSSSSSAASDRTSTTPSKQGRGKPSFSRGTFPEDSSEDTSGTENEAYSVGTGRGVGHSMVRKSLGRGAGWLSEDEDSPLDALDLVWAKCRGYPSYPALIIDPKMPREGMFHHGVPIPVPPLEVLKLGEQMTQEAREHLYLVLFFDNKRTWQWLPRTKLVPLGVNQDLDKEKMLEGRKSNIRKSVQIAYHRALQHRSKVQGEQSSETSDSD
The conditions noted are these: Compound concentration 20.0 uM, Protein concentration 2.0 uM, Result type QC Liability.

Experiment [1] addresses Fibroblast growth factor receptor 3 (Homo sapiens) (UniProt P22607). The conditions noted are these: Compound concentration 20.0 uM, Protein concentration 2.0 uM, Result type QC Liability.
Description: Thermal Shift Assay. Domain: start/stop: P449-E759

Fibroblast growth factor receptor 3 (Homo sapiens), sequence (P22607 23-806 limits assumed): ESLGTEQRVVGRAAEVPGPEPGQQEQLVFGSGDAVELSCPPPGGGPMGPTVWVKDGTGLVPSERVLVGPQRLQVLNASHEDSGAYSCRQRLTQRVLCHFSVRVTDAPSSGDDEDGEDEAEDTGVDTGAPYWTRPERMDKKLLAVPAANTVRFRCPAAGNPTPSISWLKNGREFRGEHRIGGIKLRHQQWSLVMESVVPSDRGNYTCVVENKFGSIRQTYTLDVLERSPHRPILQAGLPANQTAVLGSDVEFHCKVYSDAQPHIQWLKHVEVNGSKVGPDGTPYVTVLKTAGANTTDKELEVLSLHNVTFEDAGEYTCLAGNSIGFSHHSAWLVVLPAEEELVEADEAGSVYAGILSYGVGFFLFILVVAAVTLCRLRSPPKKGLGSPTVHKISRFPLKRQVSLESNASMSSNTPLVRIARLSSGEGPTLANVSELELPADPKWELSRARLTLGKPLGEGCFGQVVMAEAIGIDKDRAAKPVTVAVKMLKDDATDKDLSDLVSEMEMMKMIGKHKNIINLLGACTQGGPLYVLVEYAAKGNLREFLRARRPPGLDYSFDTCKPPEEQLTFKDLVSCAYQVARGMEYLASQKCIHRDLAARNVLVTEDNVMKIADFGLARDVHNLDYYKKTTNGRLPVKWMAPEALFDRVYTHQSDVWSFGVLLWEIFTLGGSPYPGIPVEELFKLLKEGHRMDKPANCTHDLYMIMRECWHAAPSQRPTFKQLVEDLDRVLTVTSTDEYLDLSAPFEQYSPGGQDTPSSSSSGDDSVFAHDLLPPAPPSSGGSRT

Take `N=C(N)NCCC[C@@H](NC(=O)C(c1ccccc1)c1ccccc1)C(=O)NCc1ccc(CNC(N)=O)cc1`: the ΔTm on Peregrin (Homo sapiens) is -2 °C; in experiment [1], 0.46 °C.

For the compound `CCNC(=O)c1ccc2c(c1)NC(=O)/C2=C(\Nc1ccc(CN(C)C)cc1)c1ccccc1`, the ΔTm at Peregrin (Homo sapiens) is -2.4 °C and -1.23 °C; in experiment [1], 1.15 °C and 1.47 °C.

Regarding `CC(=O)Nc1cccc(-n2c(=O)n(C3CC3)c(=O)c3c(Nc4ccc(I)cc4F)n(C)c(=O)c(C)c32)c1`, the ΔTm at Peregrin (Homo sapiens) is -0.16 °C; in experiment [1], 0.38 °C.

On to `CCOC(=O)c1ccc(CN(Cc2ccc(-c3cccc(S(C)(=O)=O)c3)cc2)S(=O)(=O)c2c(C)cc(C)cc2C)o1`, for which the figures for the ΔTm (at Peregrin (Homo sapiens); in experiment [1]) were -3.02 °C and -1.46 °C, respectively.

With `Clc1ccccc1C(c1ccccc1)(c1ccccc1)n1ccnc1`, the ΔTm on Peregrin (Homo sapiens) is -5.05 °C; in experiment [1], 0.47 °C.

`CN(c1ccc(C(F)(F)F)cc1)S(=O)(=O)c1ccc(C(=O)Nc2nc(-c3ccccn3)cs2)cc1`: the ΔTm at Peregrin (Homo sapiens) is 7.54 °C; in experiment [1] it was 8.54 °C.

Take `Cc1csc(S(=O)(=O)N(CC(C)C)c2cc3c(cc2OCc2ccc(C(=O)O)cc2)CCC3)n1`: the figures for the ΔTm (on Peregrin (Homo sapiens); in experiment [1]) were -3.17 °C and 0.12 °C, respectively.

What is called ΔTm is the shift of the melting midpoint relative to a reference.

Source of the values: ChEMBL document CHEMBL5308504, “Tm Shift (DSF) assay results for EUbOPEN Chemogenomics Library” (2023).
